# Data from patent US20100227859A1, “TRICYCLIC COMPOUNDS AS MATRIX METALLOPROTEINASE INHIBITORS” (priority 2007, published 2010).
# pIC50: −log10 of the molar value.
# Biological target: purified human MMP-12 enzyme (Homo sapiens, UniProt P39900)
# Experiment: MMP-12 FRET assay
# Type: biochemical
# Conditions: substrate 20 μM, room temperature
# Method in brief: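 Initial fluorescence rate (325/395 nm) of cleavage of MCA-Pro-Leu-Gly-Leu-Dpa(DNP)-Ala-Arg, 20 μM final, was followed for 30 min at room temperature after a 30 min enzyme–compound preincubation. Buffer: 50 mM HEPES pH 7.4, 100 mM NaCl, 5 mM CaCl2, 0.005% Brij-35, with 10% final DMSO. IC50 came from a Hill-type fit of rate versus inhibitor concentration.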
# Sequence of purified human MMP-12 enzyme (P39900 106-470): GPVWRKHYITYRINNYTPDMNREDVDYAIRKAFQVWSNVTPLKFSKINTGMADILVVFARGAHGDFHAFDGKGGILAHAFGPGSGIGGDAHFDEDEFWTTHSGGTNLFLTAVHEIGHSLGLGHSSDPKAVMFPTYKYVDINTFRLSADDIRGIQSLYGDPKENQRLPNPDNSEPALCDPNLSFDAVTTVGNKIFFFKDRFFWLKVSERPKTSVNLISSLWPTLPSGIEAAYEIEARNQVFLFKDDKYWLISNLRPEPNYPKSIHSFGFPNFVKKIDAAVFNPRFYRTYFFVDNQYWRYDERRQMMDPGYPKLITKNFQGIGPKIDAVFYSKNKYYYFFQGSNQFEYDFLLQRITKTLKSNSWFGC
row,Compound,pIC50
1,"CC(C)[C@@H](NS(=O)(=O)c1ccc2oc3cc(-c4noc(C5CCCCC5)n4)ccc3c2c1)C(=O)O [Compound 192, (R)-2-(7-(5-cyclohexyl-1,2,4-oxadiazol-3-yl)dibenzo[b,d]furan-2-sulfonamido)-3-methylbutanoic acid]",8.14
2,"CC(C)[C@@H](NS(=O)(=O)c1ccc2sc3cc(-c4ccco4)ccc3c2c1)C(=O)O [Compound 287, (R)-2-(7-(furan-2-yl)dibenzo[b,d]thiophene-2-sulfonamido)-3-methylbutanoic acid]",7.15
3,"CC(C)[C@@H](NS(=O)(=O)c1ccc2oc3cc(-c4ccc(C(C)(C)C)o4)ccc3c2c1)C(=O)O [Compound 240, (R)-2-(7-(5-tert-butylfuran-2-yl)dibenzo[b,d]furan-2-sulfonamido)-3-methylbutanoic acid]",7.72
4,"CC(C)[C@@H](NS(=O)(=O)c1ccc2oc3cc(-c4nc5c(F)c(F)c(F)cc5s4)ccc3c2c1)C(=O)O [Compound 300, (R)-3-methyl-2-(7-(4,5,6-trifluorobenzo[d]thiazol-2-yl)dibenzo[b,d]furan-2-sulfonamido)butanoic acid]",7.29
5,"Cc1onc(-c2ccccc2)c1-c1ccc2oc3cc(S(=O)(=O)N[C@H](C(=O)O)C(C)C)ccc3c2c1 [Compound 161, (S)-3-methyl-2-(8-(5-methyl-3-phenylisoxazol-4-yl)dibenzo[b,d]furan-3-sulfonamido)butanoic acid]",7.09
6,"CC(C)[C@H](NS(=O)(=O)c1ccc2c(c1)oc1cc(-c3noc(C(C)(C)C)n3)ccc12)C(=O)O [Compound 155, (S)-2-(7-(5-tert-butyl-1,2,4-oxadiazol-3-yl)dibenzo[b,d]furan-3-sulfonamido)-3-methylbutanoic acid]",7.96
7,"CC(C)[C@H](NS(=O)(=O)c1ccc2c(c1)oc1ccc(-c3ccc4oc5ccccc5c4c3)cc12)C(=O)O [Compound 195, (S)-2-(2,2′-bidibenzo[b,d]furan-7-sulfonamido)-3-methylbutanoic acid]",8.14
8,"(S)-3-methyl-2-(8-(5-((methylamino)methyl)furan-2-yl)dibenzo[b,d]furan-3-sulfonamido)butanoic acid [Compound 68]",7.89

# Compounds with a higher pIC50, results first:
row,pIC50,Compound
1,8.77,"Cc1nnc(-c2ccc3oc4cc(S(=O)(=O)N[C@H](C(=O)O)C(C)C)ccc4c3c2)s1 [Compound 146, (S)-3-methyl-2-(8-(5-methyl-1,3,4-thiadiazol-2-yl)dibenzo[b,d]furan-3-sulfonamido)butanoic acid]"
2,> 8.82,"Cc1nc(-c2ccc(-c3ccc4oc5cc(S(=O)(=O)N[C@H](C(=O)O)C(C)C)ccc5c4c3)s2)no1 [Compound 199, (S)-3-methyl-2-(8-(5-(5-methyl-1,2,4-oxadiazol-3-yl)thiophen-2-yl)dibenzo[b,d]furan-3-sulfonamido)butanoic acid]"
3,> 8.82,"CC(C)[C@H](NS(=O)(=O)c1ccc2c(c1)oc1ccc(-c3nc4cc(F)c(F)cc4s3)cc12)C(=O)O [Compound 220, (S)-2-(8-(5,6-difluorobenzo[d]thiazol-2-yl)dibenzo[b,d]furan-3-sulfonamido)-3-methylbutanoic acid]"
4,> 8.82,"CC(C)[C@H](NS(=O)(=O)c1ccc2c(c1)sc1cc(-c3ccc(Cl)o3)ccc12)C(=O)O [Compound 182, (S)-2-(7-(5-chlorofuran-2-yl)dibenzo[b,d]thiophene-3-sulfonamido)-3-methylbutanoic acid]"
5,> 8.82,"CC(C)[C@H](NS(=O)(=O)c1ccc2c(c1)oc1ccc(/C=C/C3CCCCC3)cc12)C(=O)O [Compound 35, (S,E)-2-(8-(2-cyclohexylvinyl)dibenzo[b,d]furan-3-sulfonamido)-3-methylbutanoic acid]"
6,8.55,"CC(C)[C@@H](NS(=O)(=O)c1ccc2oc3cc(-c4cnn(C)c4)ccc3c2c1)C(=O)O [Compound 117, (R)-3-methyl-2-(7-(1-methyl-1H-pyrazol-4-yl)dibenzo[b,d]furan-2-sulfonamido)butanoic acid]"
